Values of other authors, collected in patent US11071781B2, “Combination of local and systemic immunomodulative therapies for enhanced treatment of cancer” (Provectus Pharmatech, Inc., priority 2011, dated 2021).
Several values for one entry are separate records, joined by “and”; a condition that tells them apart may be missing. Equal entries are not always repeated. Where two headings read alike, the source gives them in different places.

Tests used:
melanoma = conditions: for toxicity and side effects: patients
cancer cells = conditions: previous work, WO 02/05812
[1] = intralesional therapy, melanoma patients

In the case of `N.N.[Cl][Pt][Cl]` [cisplatin, reference compound], the “objective response rate (ORR)” value (melanoma; [1]) is listed as 38% and 53%, the ORR (melanoma; lesions having a median diameter of 3.0 cm) is listed as 44% and the ORR (melanoma; lesions with a median diameter of 0.6 cm) is listed as 53%.

For `O=C1OC2(c3cc(I)c(O)c(I)c3Oc3c2cc(I)c(O)c3I)c2c(Cl)c(Cl)c(Cl)c(Cl)c21` [rose bengal, 4,5,6,7-tetrachloro-2′,4′,5′,7′-tetraiodofluorescein], the “uptake into cancer cells versus normal cells” value (cancer cells) is listed as “preferential uptake into cancer cells but is essentially excluded from normal cells”.

For IFN-α, the “complete response (CR)” value (melanoma; [1]) is given as 31%, the “objective response rate (ORR)” value (melanoma; [1]) is given as 45% and the “partial response (PR)” value (melanoma; [1]) is given as 14%. For the same molecule, the “toxicity and side effects” value (melanoma; intralesional therapy) was “significant toxicity and side effects”.

In the case of bleomycin [reference compound], the “efficacy (in words)” value (melanoma; single electrochemotherapy treatment, intralesional) is given as “Substantial efficacy”.

B1: IFN-γ: interferon-gamma, non-specific cytokine (protein, UniProt P01579 24-161, looked up)
Interferon gamma: QDPYVKEAENLKKYFNAGHSDVADNGTLFLGILKNWKEESDRKIMQSQIVSFYFKLFKNFKDDQSIQKSVETIKEDMNVKFFNSNKKKRDDFEKLTNYSVTDLNVQRKAIHELIQVMAELSPAAKTGKRKRSQMLFRG
For B1, the “response to IL therapy (in words)” value (melanoma; intralesional interferon) is given as “either no result or transient response” and the “toxicity and side effects” value (melanoma; intralesional therapy) is given as “significant toxicity and side effects”.
